In general, melting point refers to the temperature, or range, at which the solid turns liquid.

The compound `COC(=O)/C=C\c1cnn(C)c1-c1ccc(F)cc1` yielded a melting point of 108 to 109 °C. The figure for `O=C(O)c1cc2c(=O)n(C3CCCC3)c3ccccc3n2c1` is 215 to 216 °C; for `CCCNC(=O)C=C1SC(Nc2c(Cl)cccc2Cl)=NC1=O` it is over 230 °C; for `CN1C(=O)C2(COc3cc4c(cc32)OCCO4)c2c(C(=O)NC3CCCC3)cccc21` (centres undefined) it is 135 to 136 °C. Next, `COc1ccc(NC(=O)c2ccc(F)cc2)cc1`: 171 to 172 °C; `COc1ccc([N+](=O)[O-])c2c1OCC(C(=O)O)C2` (centres undefined): 181 to 183 °C. `CCCCc1nc(CCC)nn1Cc1ccc(-c2ccccc2-c2nnn[nH]2)cc1` gave a melting point of 170 °C.

Turning to `O=[N+]([O-])c1cc(C(F)(F)F)c(Cl)c([N+](=O)[O-])c1NC1CC1`, the melting point was in the range of 86 to 87 °C. The figure for `O=C(O)c1cc(C(F)(F)F)cc(Cl)c1-n1cnc(C(F)(F)C(F)(F)F)cc1=O` is 189 to 190 °C. The figure for `CCCCCCCSC[C@H](N[C@@H](C)C(=O)O)C(=O)OCC` is 124 to 126 °C; for `CCc1csc2[nH]c(=O)c(=O)[nH]c12` it is over 300 °C; for `CCOC(=O)C1=C(COCc2nnc(C)o2)NC(C)=C(C(=O)OC)C1c1cccc(Cl)c1Cl` (centres undefined) it is 118 to 120 °C. For `O=[N+]([O-])c1ccc2[nH]c(C(F)(F)F)cc2c1`, the melting point is 190 to 193 °C. Next, `CCOC(=O)c1cn(-c2cnccn2)cn1`: 128 to 129 °C; `O=c1[nH]c2cc(Cl)ccc2c(O)c1-c1cccc(OCc2ccccc2)c1`: 293 to 295 °C; `COCC(C)Oc1cc(Oc2ccc(S(C)(=O)=O)cc2)cc2cc(C(=O)O)[nH]c12` (centres undefined): 136 to 137 °C.

Regarding `CCNC(=S)N1CCN(c2cncc(OC)n2)CC1`, the melting point lay in the range of 120 to 122 °C. Next, `COC(=O)c1cc2cnc(SC)nc2n(Cc2ccc(OC)c(Cl)c2)c1=O`: 191 to 193 °C. Next, `COCC1OC(=O)NC1c1ccccc1OC(C)(O)C1CCCCC1` (centres undefined): 87 °C; `N#Cc1c(C(F)(F)F)[nH]c2cc(Cl)c(Cl)cc12`: over 260 °C. Next, `CCc1cccc(CC)c1N(CCl)C(=O)c1ccccc1`: 98 to 99 °C; `CCOC(=O)c1cc(C(O)CBr)c(=O)[nH]c1C(=O)OCC` (centres undefined): 134 to 138 °C. On to `COc1ccc(CCc2ccc(NC(=O)C(=O)c3ccccc3O)cc2)cc1OC`, for which the melting point fell in the range of 124 to 125 °C. The figure for `CCCc1nc(NC2CC2)nc(N2CCOCC2)n1` is 104 °C; for `CCn1cc(C(=O)O)c(=O)c2cc(F)c(N3CC(CNC)C3)nc21` it is 180 to 182 °C; for `CCCOc1cccc(OCCC)c1C(=O)Nc1cc(C(C)(C)C)no1` it is 85 to 87 °C. The figure for `CCN(c1ccc(C(F)(F)F)cc1)C1CCN(c2ccc(OC[C@H]3CCn4cc([N+](=O)[O-])nc4O3)cc2)CC1` is 206 °C. Take `NC(=O)C12CCCC(C1)C1CCC2C1` (centres undefined): the melting point lay in the range of 173 to 174 °C.

The compound `Cc1nc(Br)cnc1NS(=O)(=O)c1cccc2c(N(C)C)cccc12` returned a melting point of 171 to 172 °C. Next, `CC(C)(O)c1ccc(-c2cnc3c(n2)N(CCN2CCOCC2)CC(=O)N3)cn1`: 239 to 241 °C; `CCCc1nc(C)cc(=O)n1CCOc1ccc(CC2SC(=O)NC2=O)cc1` (centres undefined): 144 to 146 °C. Consider `COc1c(N2CCCC(CN)C2)c(F)cc2c(=O)c(C(=O)O)cn(C3CC3)c12` (centres undefined), for which the melting point was in the range of 192 to 193 °C. The figure for `COc1cc([N+](=O)[O-])c(C(=O)c2ccccc2)cc1O` is 154 to 156 °C; for `O=C(OC1CCCCC1=O)c1ccc(Cl)cc1` (centres undefined) it is 84 to 85 °C; for `NC(=O)c1cc(Oc2cccc(CO)c2)ccn1` it is 113 °C. Compound `CC1(C)OC(=O)C(COS(C)(=O)=O)(c2ccc(Cl)cc2Cl)O1` (centres undefined) gave a melting point of 98 to 100 °C. The compound `CCOP(=O)(CC(=O)Nc1cc2c(Nc3ccc(F)c(Cl)c3)ncnc2cc1OCC1CC1)OCC` came in with a melting point of 185 to 187 °C. Next, `OC1(CNCc2ccccc2)CCN(CCCc2c[nH]c3ccc(-n4cnnc4)cc23)C1` (centres undefined): over 61 °C; `CCN(SN(C)C=Nc1ccc(C)cc1C)c1ccccc1`: 52 to 53 °C. Compound `CC(NS(C)(=O)=O)c1ccc2[nH]cc(CCN3C(=O)c4ccccc4C3=O)c2c1` (centres undefined) displayed a melting point of 203 to 205 °C. The figure for `COC(=O)CCC(=O)c1ccc(NC(=O)C(C)C)c(N)c1` is 178 °C; for `Nc1ccc(-c2ccncc2)nc1N` it is 252 to 254 °C.

As for `NC(=O)C(CCC(=O)O)N1C(=O)c2cccc(NCc3ccco3)c2C1=O` (centres undefined), the melting point is 120 to 122 °C. Take `OC1CCN(Cc2ccc(Br)cc2)CC1N1CCC(c2ccccc2)CC1` (centres undefined): the melting point is 159 to 161 °C. The figure for `O=C(/C=C/c1ccc2ccccc2c1)N1CCN(Cc2cccc(CN3CCN(C(=O)/C=C/c4ccc5ccccc5c4)CC3)n2)CC1` is 200 to 202 °C; for `CCCCCCC(C)(C)c1ccc(C2(O)CCCNC2)c(O)c1` (centres undefined) it is 147 °C; for `CN1CCC(=O)C(C2c3ccccc3Sc3ccccc32)C1` (centres undefined) it is 155 to 156 °C. The figure for `CNC(=O)c1c(NC(=O)c2cc(C(F)(F)F)nn2-c2ncccc2Cl)c(Br)cc2cn[nH]c12` is over 255 °C; for `CCc1c(C)noc1NS(=O)(=O)c1cccc2c(N(C)C)cccc12` it is 55 to 85 °C.

In turn, `O=C(c1ccccc1)N1C(=O)c2cccnc2Nc2ccccc21` displayed a melting point of 198 to 201 °C. The compound `CC/C(=C\c1ccc(OCCOC)cc1Oc1ncc(Cl)cc1Cl)C(=O)O` had a melting point of 139 to 140 °C.

In turn, `CCS(=O)(=O)CCC(=O)NNC(=O)N1Cc2cc(Cl)ccc2Oc2ccc(Cl)cc21` returned a melting point of 189 to 190 °C.

`CC(C)n1nc(-c2sc(C(=O)NCc3ccncc3)nc2-c2ccccc2)ccc1=O` displayed a melting point of 192 to 193 °C. The figure for `Clc1cncc(Oc2cccc(Cl)n2)c1` is 46 to 47 °C; for `CCCCCCCCCCCCCCCCCC(=O)Nc1cccc([N+](=O)[O-])c1` it is 75 to 76 °C; for `C/C(Cl)=C\C(=O)Nc1ccc(C)cc1` it is 108 to 109 °C.

As for `NS(=O)(=O)c1cccnc1OCC1CC1`, the melting point was 121 to 122 °C. The figure for `CCOCCn1cc(C2CCN(CCOc3cc(OC)ccc3C(=O)O)CC2)c2cccnc21` is 106 to 108 °C; for `CCOC(=O)c1c(C=O)c2ccc3oc4ccccc4c3c2n1C` it is 190 to 192 °C; for `CC(C)N(CCCCOc1ccc(-c2nnc(CSCCOc3ccccc3)o2)cc1)C(C)C` it is 42 to 44 °C. Next, `Oc1ccc2c(c1)COc1c-2cc2ccc(O)cc2c1-c1cc(F)cc(F)c1`: 238 to 240 °C; `CC(=O)NC[C@H]1CN(c2ccc(C(=O)c3cnc4ccccn34)c(F)c2)C(=O)O1`: 196 to 198 °C; `COc1cccc([C@H]2O[C@H](CC(=O)NCc3ccc(C(=O)O)cc3)C(=O)N(CC(C)(C)CO)c3ccc(Cl)cc32)c1OC`: 143 to 144 °C. Take `NC1=Nc2ccccc2Cn2cccc21`: the melting point is 179 to 181 °C.

Source of the values: a melting point compilation (Tetko et al.; mined from patent text by program, amines drawn as free bases though some values may be those of a salt).
